Source: US20230117034A1, “PYRAZOLOTRIAZINES” (Bayer Aktiengesellschaft, priority 2019, published 2023)

Columns and labels:
CDK2/CycE = biological target: T1, CDK2/CycE (Homo sapiens, UniProt P24941); assay: CDK2/CycE kinase assay (TR-FRET, 2 mM ATP); type: biochemical; details: 2 mM ATP (high ATP); median; read-out: CDK2/CyclinE, 2 mM ATP (high ATP), IC50 (median)
T1 construct: purchased ProQinase GmbH (Freiburg, Germany); host or cells: insect cells (Sf9)
Excerpt: CDK2/CycE-inhibitory activity of compounds of the present invention was quantified employing the CDK2/CycE TR-FRET assay as described in the following paragraphs.
Recombinant fusion proteins of GST and human CDK2 and of GST and human CycE, expressed in insect cells (Sf9) and purified by Glutathion-Sepharose affinity chromatography, were purchase from ProQinase GmbH (Freiburg, Germany). As substrate for the kinase reaction biotinylated peptide biotin-Ttds-YISPLKSPYKISEG (C-terminus in amid form) was used which can be purchased e.g. form the company JERINI peptide technologies (Berlin, Germany).
For the assay 50 nanoL of a 100 fold concentrated solution of the test compound in DMSO was pipetted into a black low volume 384 well microtiter plate or a black 1536 well microtiter plate (both Greiner Bio-One, Frickenhausen, Germany), 2 microL of a solution of CDK2/CycE in aqueous assay buffer [50 millimol/L Tris/HCl pH 8.0, 10 millimol/L MgCl2, 1.0 millimol/L dithiothreitol, 0.1 millimol/L sodium ortho-vanadate, 0.01% (v/v) Nonidet-P40 (Sigma)] were added and the mixture was incubated for 15 min at 22° C. to allow pre-binding of the test compounds to the enzyme before the start of the kinase reaction. Then the kinase reaction was started by the addition of 3 microL of a solution of adenosine-tri-phosphate (ATP, 3.33 millimol/L=>final conc. in the 5 microL assay volume is 2 millimol/L) and substrate (1.25 micromol/L=>final conc. in the 5 microL assay volume is 0.75 micromol/L) in assay buffer and the resulting mixture was incubated for a reaction time of 25 min at 22° C. The concentration of CDK2/CycE was adjusted depending of the activity of the enzyme lot and was chosen appropriate to have the assay in the linear range, typical concentrations were in the range of 10 ng/ml. The reaction was stopped by the addition of 3 microL of a solution of TR-FRET detection reagents (0.333 micromol/L streptavidine-XL665 [Cisbio Bioassays, Codolet, France] and 1.67 nanomol/L anti-RB(pSer807/pSer8l 1)-antibody from BD Pharmingen [#558389] and 2 nanomol/L LANCE EU-W1024 labeled anti-mouse IgG antibody [Perkin-Elmer, product no. AD0077, as an alternative a Terbium-cryptate-labeled anti-mouse IgG antibody from Cisbio Bioassays can be used]) in an aqueous EDTA-solution (167 millimol/L EDTA, 0.2% (w/v) bovine serum albumin in 100 millimol/L HEPES pH 7.5).
The resulting mixture was incubated 1 h at 22° C. to allow the formation of complex between the phosphorylated biotinylated peptide and the detection reagents. Subsequently the amount of phosphorylated substrate was evaluated by measurement of the resonance energy transfer from the Eu-chelate to the streptavidine-XL. Therefore, the fluorescence emissions at 620 nm and 665 nm after excitation at 350 nm was measured in a TR-FRET reader, e.g. a Pherastar (BMG Labtechnologies, Offenburg, Germany) or a Viewlux (Perkin-Elmer). The ratio of the emissions at 665 nm and at […] was taken as the measure for the amount of phosphorylated substrate. The data were normalised (enzyme reaction without inhibitor=0% inhibition, all other assay components but no enzyme=100% inhibition).

[1] = biological target: T2, CDK12 (nuclear staining in CAL-120 cells) (Homo sapiens, UniProt Q9NYV4); assay: CDK12 nuclear protein level: immunofluorescence/high content analysis (CAL-120); type: cell-based; details: for DC50: CAL-120 cells, 24 h, immunofluorescence, 50% reduction of nuclear CDK12 staining intensity, median, read-out: CDK12 degradation IF, DC50- [mol/l] (median); for (IC50 CDK12 high ATP) to (Degradation DC50 CDK12) ratio: ratio of IC50 CDK12 high ATP kinase assay to DC50 CDK12 degradation (IF, CAL-120)
T2 construct: endogenous in cells; host or cells: CAL-120 human breast cancer cells (DSMZ ACC 459)
T2 sequence (Q9NYV4 whole entry): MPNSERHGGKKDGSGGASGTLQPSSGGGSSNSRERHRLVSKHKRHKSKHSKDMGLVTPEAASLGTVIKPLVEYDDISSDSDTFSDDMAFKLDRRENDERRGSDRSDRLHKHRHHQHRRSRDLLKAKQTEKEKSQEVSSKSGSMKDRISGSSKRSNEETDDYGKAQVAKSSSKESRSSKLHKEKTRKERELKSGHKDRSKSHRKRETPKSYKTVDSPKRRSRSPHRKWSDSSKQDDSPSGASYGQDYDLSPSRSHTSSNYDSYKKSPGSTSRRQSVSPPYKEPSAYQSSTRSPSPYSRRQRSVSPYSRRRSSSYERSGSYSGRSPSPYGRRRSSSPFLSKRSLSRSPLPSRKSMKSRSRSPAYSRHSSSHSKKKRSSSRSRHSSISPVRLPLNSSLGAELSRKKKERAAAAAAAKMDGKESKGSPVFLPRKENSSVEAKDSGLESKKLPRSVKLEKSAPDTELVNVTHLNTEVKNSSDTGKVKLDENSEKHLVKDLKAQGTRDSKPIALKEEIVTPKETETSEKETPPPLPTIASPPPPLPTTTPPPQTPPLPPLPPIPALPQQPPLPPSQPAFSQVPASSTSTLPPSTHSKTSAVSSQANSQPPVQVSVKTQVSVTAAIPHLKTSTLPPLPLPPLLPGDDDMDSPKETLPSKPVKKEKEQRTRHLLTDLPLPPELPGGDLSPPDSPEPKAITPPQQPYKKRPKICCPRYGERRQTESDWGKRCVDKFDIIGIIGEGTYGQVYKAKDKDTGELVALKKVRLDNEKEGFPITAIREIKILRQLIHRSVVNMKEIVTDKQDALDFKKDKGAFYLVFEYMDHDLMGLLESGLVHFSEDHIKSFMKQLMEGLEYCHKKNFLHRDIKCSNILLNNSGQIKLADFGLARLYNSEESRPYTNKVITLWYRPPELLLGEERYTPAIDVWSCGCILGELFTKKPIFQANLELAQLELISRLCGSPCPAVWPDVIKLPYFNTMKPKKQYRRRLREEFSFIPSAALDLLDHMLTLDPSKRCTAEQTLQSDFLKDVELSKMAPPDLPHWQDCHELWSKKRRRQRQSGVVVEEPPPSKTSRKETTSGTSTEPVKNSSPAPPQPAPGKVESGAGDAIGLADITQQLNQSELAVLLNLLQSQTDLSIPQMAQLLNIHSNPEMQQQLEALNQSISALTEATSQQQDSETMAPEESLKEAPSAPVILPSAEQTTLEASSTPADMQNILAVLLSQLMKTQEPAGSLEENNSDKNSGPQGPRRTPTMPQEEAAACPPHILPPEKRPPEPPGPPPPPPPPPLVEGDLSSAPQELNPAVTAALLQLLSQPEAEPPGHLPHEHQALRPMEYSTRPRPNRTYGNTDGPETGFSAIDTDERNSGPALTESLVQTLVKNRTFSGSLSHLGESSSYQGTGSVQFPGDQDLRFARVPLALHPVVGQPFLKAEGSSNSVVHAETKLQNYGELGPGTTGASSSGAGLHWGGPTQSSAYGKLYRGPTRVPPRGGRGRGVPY
T2 sequence (O75909 whole entry partner): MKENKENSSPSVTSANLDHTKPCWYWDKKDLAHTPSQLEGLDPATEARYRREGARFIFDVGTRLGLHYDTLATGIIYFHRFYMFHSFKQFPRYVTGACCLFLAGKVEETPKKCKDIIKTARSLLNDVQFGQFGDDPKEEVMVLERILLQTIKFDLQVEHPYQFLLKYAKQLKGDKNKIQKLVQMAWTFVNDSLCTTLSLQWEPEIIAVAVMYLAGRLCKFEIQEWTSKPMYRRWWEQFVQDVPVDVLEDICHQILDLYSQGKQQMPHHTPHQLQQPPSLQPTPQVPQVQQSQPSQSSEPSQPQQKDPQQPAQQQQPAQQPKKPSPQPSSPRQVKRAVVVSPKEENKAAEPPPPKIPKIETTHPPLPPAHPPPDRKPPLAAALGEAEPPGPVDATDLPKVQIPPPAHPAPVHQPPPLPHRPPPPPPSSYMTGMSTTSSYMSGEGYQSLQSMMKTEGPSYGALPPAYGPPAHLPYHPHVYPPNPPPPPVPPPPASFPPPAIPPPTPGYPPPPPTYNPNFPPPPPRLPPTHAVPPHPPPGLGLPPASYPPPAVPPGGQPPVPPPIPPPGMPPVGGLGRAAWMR
Procedure: In the context of the present invention, the term “DC50 CDK12” refers to the DC50 values obtained according to the assay described in this section (7) herein below, i.e. the DC50 values for the degradation of CDK12.
Plates are then incubated for 24 h at 37° C. in an humidified incubator and fixed with 4% PFA for 10 min. […] Nuclear and cytoplasmic intensity as well as the nuclear/cytoplasmic intensity ratio is determined by automated image analysis using custom generated scripts (MetaXpress). Data is then transferred to Genedata Screener software, normalized to DMSO and control and DC50 values (degrading concentration to achieve 50% reduction of nuclear CDK12 staining intensity relative to controls) are reported.

Compound	IC50 (CDK2/CycE)	DC50 [1]	(IC50 CDK12 high ATP) to (Degradation DC50 CDK12) ratio [1]
NCCc1cccc2[nH]c(CNc3nc(N4CCOCC4)nc4c(Br)cnn34)nc12 [Example 112, N-{[7-(2-aminoethyl)-1H-benzimidazol-2-yl]methyl}-8-bromo-2-(morpholin-4-yl)pyrazolo[1,5-a][1,3,5]triazin-4-amine]	4340 nM	50 nM	134
O=S1(=O)CCN(c2nc(NCc3nc4ccccc4[nH]3)n3ncc(Br)c3n2)CC1 [Example 166, 4-(4-{[(1H-benzimidazol-2-yl)methyl]amino}-8-bromopyrazolo[1,5-a][1,3,5]triazin-2-yl)-1 lambda^6-thiomorpholine-1,1-dione]	4700 nM	3.39 nM	1800
C[C@H]1CN(c2nc(NCc3nnc(-c4cccc(F)c4)[nH]3)n3ncc(Br)c3n2)CCN1C [Example 154, 8-bromo-2-[(3S)-3,4-dimethylpiperazin-1-yl]-N-{[5-(3-fluorophenyl)-4H-1,2,4-triazol-3-yl]methyl}pyrazolo[1,5-a][1,3,5]triazin-4-amine]	4470 nM	5.27 nM	1360
CN1CCN(c2nc(NCc3nc4c(F)cccc4[nH]3)n3ncc(Br)c3n2)CC1 [Example 126, 8-bromo-N-[(4-fluoro-1H-benzimidazol-2-yl)methyl]-2-(4-methylpiperazin-1-yl)pyrazolo[1,5-a][1,3,5]triazin-4-amine]	5990 nM	0.906 nM	7539
CC1(C)CN(c2nc(NCc3nnc(-c4ccccc4)[nH]3)n3ncc(C4CC4)c3n2)CCO1 [Example 94, 8-cyclopropyl-2-(2,2-dimethylmorpholin-4-yl)-N-[(5-phenyl-4H-1,2,4-triazol-3-yl)methyl]pyrazolo[1,5-a][1,3,5]triazin-4-amine]	> 20000 nM	25 nM	352
CC(C)c1cnn2c(NCc3nc4ccccc4[nH]3)nc(N(C)CC(C)(C)O)nc12 [Example 5, 1-{[4-{[(1H-benzimidazol-2-yl)methyl]amino}-8-(propan-2-yl)pyrazolo[1,5-a][1,3,5]triazin-2-yl](methyl)amino}-2-methylpropan-2-ol]	1360 nM	11.4 nM	455
c1cncc(-c2cnn3c(NCc4nc5ccccc5[nH]4)nc(N4CCOCC4)nc23)c1 [Example 108, N-[(1H-benzimidazol-2-yl)methyl]-2-(morpholin-4-yl)-8-(pyridin-3-yl)pyrazolo[1,5-a][1,3,5]triazin-4-amine]	> 20000 nM	5.53 nM	>3617
Cc1cccc2[nH]c(CNc3nc(N4CCN(C)CC4)nc4c(Br)cnn34)nc12 [Example 151, 8-bromo-N-[(4-methyl-1H-benzimidazol-2-yl)methyl]-2-(4-methylpiperazin-1-yl)pyrazolo[1,5-a][1,3,5]triazin-4-amine]	13400 nM	2.07 nM	2046
Brc1cnn2c(NCc3nnc(-c4ccccc4)[nH]3)nc(N3C[C@@H]4C[C@H]3CO4)nc12 [Example 120, 8-bromo-2-[(1S,4S)-2-oxa-5-azabicyclo[2.2.1]heptan-5-yl]-N-[(5-phenyl-4H-1,2,4-triazol-3-yl)methyl]pyrazolo[1,5-a][1,3,5]triazin-4-amine]	15400 nM	5.08 nM	2588
Clc1ccc2[nH]c(CNc3nc(N4CCOCC4)nc4c(Br)cnn34)nc2c1 [Example 162, 8-bromo-N-[(5-chloro-1H-benzimidazol-2-yl)methyl]-2-(morpholin-4-yl)pyrazolo[1,5-a][1,3,5]triazin-4-amine]	4630 nM	0.471 nM	2160
C[C@H]1CCCCN1c1nc(NCc2nc3ccccc3[nH]2)n2ncc(Br)c2n1 [Example 141, N-[(1H-benzimidazol-2-yl)methyl]-8-bromo-2-[(2S)-2-methylpiperidin-1-yl]pyrazolo[1,5-a][1,3,5]triazin-4-amine]	707 nM	6.11 nM	214
CN1CCN(c2nc(NCc3nnc(-c4cccc(F)c4)[nH]3)n3ncc(Br)c3n2)CC1 [Example 136, 8-bromo-N-{[5-(3-fluorophenyl)-4H-1,2,4-triazol-3-yl]methyl}-2-(4-methylpiperazin-1-yl)pyrazolo[1,5-a][1,3,5]triazin-4-amine]	3450 nM	3.61 nM	1140
C[C@H]1CN(c2nc(NCc3nnc(-c4ccccc4)[nH]3)n3ncc(Br)c3n2)CCN1C.O=CO [Example 122, 8-bromo-2-[(3S)-3,4-dimethylpiperazin-1-yl]-N-[(5-phenyl-4H-1,2,4-triazol-3-yl)methyl]pyrazolo[1,5-a][1,3,5]triazin-4-amine formate]	6720 nM	2.47 nM	>8081
Fc1cccc2[nH]c(CNc3nc(N4CCOCC4)nc4c(Br)cnn34)nc12 [Example 97, 8-bromo-N-[(4-fluoro-1H-benzimidazol-2-yl)methyl]-2-(morpholin-4-yl)pyrazolo[1,5-a][1,3,5]triazin-4-amine]	3240 nM	0.327 nM	2411
C[C@@H]1CCCCN1c1nc(NCc2nc3ccccc3[nH]2)n2ncc(Br)c2n1 [Example 140, N-[(1H-benzimidazol-2-yl)methyl]-8-bromo-2-[(2R)-2-methylpiperidin-1-yl]pyrazolo[1,5-a][1,3,5]triazin-4-amine]	1250 nM	58.3 nM	140
Fc1cccc(-c2nnc(CNc3nc(N4C[C@H]5C[C@@H]4CO5)nc4c(Br)cnn34)[nH]2)c1 [Example 153, 8-bromo-N-{[5-(3-fluorophenyl)-4H-1,2,4-triazol-3-yl]methyl}-2-[(1R,4R)-2-oxa-5-azabicyclo[2.2.1]heptan-5-yl]pyrazolo[1,5-a][1,3,5]triazin-4-amine]	1700 nM	2.58 nM	1143
CCN1CCN(c2nc(NCc3nc4ccccc4[nH]3)n3ncc(Br)c3n2)CC1 [Example 137, N-[(1H-benzimidazol-2-yl)methyl]-8-bromo-2-(4-ethylpiperazin-1-yl)pyrazolo[1,5-a][1,3,5]triazin-4-amine]		10.8 nM	1196
COc1ccc2[nH]c(CNc3nc(N4CCN(C)CC4)nc4c(Br)cnn34)nc2c1 [Example 161, 8-bromo-N-[(5-methoxy-1H-benzimidazol-2-yl)methyl]-2-(4-methylpiperazin-1-yl)pyrazolo[1,5-a][1,3,5]triazin-4-amine]		0.856 nM	11233
